According to patent US7923450B2, “Modulators for amyloid beta” (Hoffmann-La Roche Inc., priority 2008, dated 2011):

Tested on: γ-secretase
Test: Cellular γ-secretase assay (Aβ42 secretion)
Format: cell-based
Conditions: inhibition of Aβ42 secretion; human neuroglioma H4 cells overexpressing human APP; 22 hrs incubation; read-out: EC50 in vitro
Method: Cellular γ-Secretase Assay
Human neuroglioma H4 cells overexpressing human APP were plated at 30,000 cells/well/200 μl in 96-well plates in IMDM media containing 10% FCS, 0.2 mg/l Hygromycin B and incubated for 2 h at 37° C., 5% CO2 prior to adding test compounds.
Compounds for testing were dissolved in 100% Me2SO yielding in a 10 mM stock solution. Typically 12 μl of these solutions were further diluted in 1000 μl of IMDM media (w/o FCS,). Sub sequential 1:1 dilutions gave a ten point dose response curve. 100 μl of each dilution was added to the cells in 96-well plates. Appropriate controls using vehicle only and reference compound were applied to this assay. The final concentration of Me2SO was 0.4%.
After incubation for 22 hrs at 37° C., 5% CO2, 50 μl supernatant was transferred into round-bottom 96-well polypropylene plates for detection of Aβ42. 50 μl assay buffer (50 mM Tris/Cl, pH 7.4, 60 mM NaCl, 0.5% BSA, 1% TWEEN 20) was added to the wells followed by the addition of 100 μl of detection antibody (ruthenylated Aβ42-specific antibody BAP15 0.0625 μg/mL in assay buffer). 50 μl of a premix of capture antibody (biotinylated 6E10 antibody, 1 μg/mL) and Steptavidin-coated magnetic beads (Dynal M-280, 0.125 mg/mL) were preincubated for 1 hr at room temperature before adding the assay plates. Assay plates were incubated on a shaker for 3 hrs at room temperature and finally read in the Bioveris M8 Analyser according to the manufacturer's instructions (Bioveris).
EC50 values for inhibition of Aβ42 secretion were calculated by nonlinear regression fit analysis using XLfit 4.0 software (IDBS).

COc1cc(Nc2nc3c(s2)CCCC3c2ccccc2Cl)ccc1-n1cnc(C)c1 (centres unmarked) [Example 14, [4-(2-Chloro-phenyl)-4,5,6,7-tetrahydro-benzothiazol-2-yl]-[3-methoxy-4-(4-methyl-imidazol-1-yl)-phenyl]-amine]
EC50: 70 nM

COc1cc(Nc2nc3c(s2)CCCC3c2cc(Cl)ccc2Cl)ccc1-n1cnc(C)c1 (centres unmarked) [Example 26, [4-(2,5-Dichloro-phenyl)-4,5,6,7-tetrahydro-benzothiazol-2-yl]-[3-methoxy-4-(4-methyl-imidazol-1-yl)-phenyl]-amine]
EC50: 80 nM

COc1cc(Nc2ncc3c(n2)C(C2CCCCC2)CCC3)ccc1-n1cnc(C)c1 (centres unmarked) [Example 71, (8-Cyclohexyl-5,6,7,8-tetrahydro-quinazolin-2-yl)-[3-methoxy-4-(4-methyl-imidazol-1-yl)-phenyl]-amine]
EC50: 470 nM

Cc1cn(-c2ccc(Nc3nc4c(s3)CCCC4c3ccccc3)cc2O)cn1 (centres unmarked) [Example 66, 2-(4-Methyl-imidazol-1-yl)-5-(4-phenyl-4,5,6,7-tetrahydro-benzothiazol-2-ylamino)-phenol]
EC50: 210 nM

COc1cc(Nc2ncc3c(n2)C(c2ccccc2)CN(C(=O)OC(C)(C)C)C3)ccc1-n1cnc(C)c1 (centres unmarked) [Example 40, 2-[3-Methoxy-4-(4-methyl-imidazol-1-yl)-phenylamino]-8-phenyl-7,8-dihydro-5H-pyrido[4,3-d]pyrimidine-6-carboxylic acid tert.-butyl ester]
EC50: 270 nM

COc1cc(Nc2nc3c(s2)CCCC3c2cc(F)cc(F)c2)ccc1-n1cnc(C)c1 (centres unmarked) [Example 28, [4-(3,5-Difluoro-phenyl)-4,5,6,7-tetrahydro-benzothiazol-2-yl]-[3-methoxy-4-(4-methyl-imidazol-1-yl)-phenyl]-amine]
EC50: 120 nM

COc1cc(Nc2nc3c(s2)CCCC3c2ccccc2)ccc1-c1cnco1 (centres unmarked) [Example 1, (3-Methoxy-4-oxazol-5-yl-phenyl)-(4-phenyl-4,5,6,7-tetrahydro-benzothiazol-2-yl)-amine]
EC50: 300 nM

COc1cc(Nc2ncc3c(n2)C(c2ccccc2)CN(C(C)C)C3)ccc1-n1cnc(C)c1 (centres unmarked) [Example 80, (6-Isopropyl-8-phenyl-5,6,7,8-tetrahydro-pyrido[4,3-#d!]pyrimidin-2-yl)-[3-methoxy-4-(4-methyl-imidazol-1-yl)-phenyl]-amine]
EC50: 450 nM

COc1cc(Nc2ncc3c(n2)C(c2ccccc2)CCC3)ccc1-n1cnc(C)c1 (centres unmarked) [Example 39, [3-Methoxy-4-(4-methyl-imidazol-1-yl)-phenyl]-(8-phenyl-5,6,7,8-tetrahydro-quinazolin-2-yl)-amine]
EC50: 480 nM

COc1cc(Nc2nc3c(s2)CCCC3c2cc(F)ccc2F)ccc1-n1cnc(C)c1 (centres unmarked) [Example 12, [4-(2,5-Difluoro-phenyl)-4,5,6,7-tetrahydro-benzothiazol-2-yl]-[3-methoxy-4-(4-methyl-imidazol-1-yl)-phenyl]-amine]
EC50: 160 nM

Cc1cn(-c2ccc(Nc3nc4c(s3)CCCC4c3ccccc3)cc2)cn1 (centres unmarked) [Example 18, [4-(4-Methyl-imidazol-1-yl)-phenyl]-(4-phenyl-4,5,6,7-tetrahydro-benzothiazol-2-yl)-amine]
EC50: 130 nM

COc1cc(Nc2nc3c(s2)CCCC3c2ccc(Cl)cc2Cl)ccc1-n1cnc(C)c1 (centres unmarked) [Example 25, [4-(2,4-Dichloro-phenyl)-4,5,6,7-tetrahydro-benzothiazol-2-yl]-[3-methoxy-4-(4-methyl-imidazol-1-yl)-phenyl]-amine]
EC50: 100 nM

COc1cc(Nc2nc3c(s2)CCCC3c2cc(C)ccc2C)ccc1-n1cnc(C)c1 (centres unmarked) [Example 13, [4-(2,5-Dimethyl-phenyl)-4,5,6,7-tetrahydro-benzothiazol-2-yl]-[3-methoxy-4-(4-methyl-imidazol-1-yl)-phenyl]-amine]
EC50: 120 nM

Cc1cn(-c2ccc(Nc3nc4c(s3)CCCC4c3ccccc3)cc2F)cn1 (centres unmarked) [Example 5, [3-Fluoro-4-(4-methyl-imidazol-1-yl)-phenyl]-(4-phenyl-4,5,6,7-tetrahydro-benzothiazol-2-yl)-amine]
EC50: 50 nM

COc1cc(Nc2nc3c(s2)CCCC3c2ccc(C)c(F)c2)ccc1-n1cnc(C)c1 (centres unmarked) [Example 15]
EC50: 90 nM

COc1cc(Nc2nc3c(s2)CCCC3c2cc(C(F)(F)F)cc(C(F)(F)F)c2)ccc1-n1cnc(C)c1 (centres unmarked) [Example 29, [4-(3,5-Trifluoromethyl-phenyl)-4,5,6,7-tetrahydro-benzothiazol-2-yl]-[3-methoxy-4-(4-methyl-imidazol-1-yl)-phenyl]-amine]
EC50: 100 nM

COc1cc(Nc2nc3c(s2)CN(Cc2ccccc2)CC3c2ccccc2Cl)ccc1-n1cnc(C)c1 (centres unmarked) [Example 23]
EC50: 70 nM

COc1cc(Nc2nc3c(s2)CCCC3c2ccc(Cl)c(C(F)(F)F)c2)ccc1-n1cnc(C)c1 (centres unmarked) [Example 16, [4-(4-Chloro-3-trifluoromethyl-phenyl)-4,5,6,7-tetrahydro-benzothiazol-2-yl]-[3-methoxy-4-(4-methyl-imidazol-1-yl)-phenyl]-amine]
EC50: 90 nM

COc1cc(Nc2nc3c(s2)CCCC3c2ccccc2)ccc1-c1cnn(C)c1 (centres unmarked) [Example 91, [3-Methoxy-4-(1-methyl-1H-pyrazol-4-yl)-phenyl]-(4-phenyl-4,5,6,7-tetrahydro-benzothiazol-2-yl)-amine]
EC50: 240 nM

Cc1cn(-c2ccc(Nc3nc4c(s3)CCCC4c3ccccc3)cc2C#N)cn1 (centres unmarked) [Example 21, 2-(4-Methyl-imidazol-1-yl)-5-(4-phenyl-4,5,6,7-tetrahydro-benzothiazol-2-ylamino)-benzonitrile]
EC50: 120 nM

COc1cc(Nc2nc3c(s2)CCCC3c2ccccc2)ccc1-n1cnc(C)c1 (centres unmarked) [Example 6, [3-Methoxy-4-(4-methyl-imidazol-1-yl)-phenyl]-(4-phenyl-4,5,6,7-tetrahydro-benzothiazol-2-yl)-amine]
EC50: 40 nM

COc1ccccc1C1CCCc2sc(Nc3ccc(-n4cnc(C)c4)c(OC)c3)nc21 (centres unmarked) [Example 7, [3-Methoxy-4-(4-methyl-imidazol-1-yl)-phenyl]-[4-(2-methoxy-phenyl)-4,5,6,7-tetrahydro-benzothiazol-2-yl]-amine]
EC50: 110 nM

CCOC1CCCc2cnc(Nc3ccc(-n4cnc(C)c4)c(OC)c3)nc21 (centres unmarked) [Example 83, (8-Ethoxy-5,6,7,8-tetrahydro-quinazolin-2-yl)-[3-methoxy-4-(4-methyl-imidazol-1-yl)-phenyl]-amine]
EC50: 450 nM

COc1cc(Nc2nc3c(s2)CCCC3c2cc(Cl)cc(Cl)c2)ccc1-n1cnc(C)c1 (centres unmarked) [Example 27, [4-(3,5-Dichloro-phenyl)-4,5,6,7-tetrahydro-benzothiazol-2-yl]-[3-methoxy-4-(4-methyl-imidazol-1-yl)-phenyl]-amine]
EC50: 70 nM

Cc1ncc(-c2ccc(Nc3nc4c(s3)CCCC4c3ccccc3)cc2)o1 (centres unmarked) [Example 68, [4-(2-Methyl-oxazol-5-yl)-phenyl]-(4-phenyl-4,5,6,7-tetrahydro-benzothiazol-2-yl)-amine]
EC50: 130 nM

COc1cc(Nc2nc3c(s2)CCCC3(CC#N)c2ccc(Cl)cc2)ccc1-n1cnc(C)c1 (centres unmarked) [Example 19, {4-(4-Chloro-phenyl)-2-[3-methoxy-4-(4-methyl-imidazol-1-yl)-phenylamino]-4,5,6,7-tetrahydro-benzothiazol-4-yl}-acetonitrile]
EC50: 260 nM

COc1cc(Nc2nc3c(s2)CCCC3c2ccc(OC(F)(F)F)cc2)ccc1-n1cnc(C)c1 (centres unmarked) [Example 10, [3-Methoxy-4-(4-methyl-imidazol-1-yl)-phenyl]-[4-(4-trifluoromethoxy-phenyl)-4,5,6,7-tetrahydro-benzothiazol-2-yl]-amine]
EC50: 100 nM

CCN1Cc2cnc(Nc3ccc(-n4cnc(C)c4)c(OC)c3)nc2C(c2ccccc2)C1 (centres unmarked) [Example 44, (6-Ethyl-8-phenyl-5,6,7,8-tetrahydro-pyrido[4,3-d]pyrimidin-2-yl)-[3-methoxy-4-(4-methyl-imidazol-1-yl)-phenyl]-amine]
EC50: 320 nM

COc1cc(Nc2ncc3c(n2)C(c2cc(F)c(F)c(F)c2)CCC3)ccc1-n1cnc(C)c1 (centres unmarked) [Example 69, [3-Methoxy-4-(4-methyl-imidazol-1-yl)-phenyl]-[8-(3,4,5-trifluoro-phenyl)-5,6,7,8-tetrahydro-quinazolin-2-yl]-amine]
EC50: 250 nM

COc1cc(Nc2nc3c(s2)CCCC3c2ccccc2)ccc1-c1cnc(C)s1 (centres unmarked) [Example 92, [3-Methoxy-4-(2-methyl-thiazol-5-yl)-phenyl]-(4-phenyl-4,5,6,7-tetrahydro-benzothiazol-2-yl)-amine]
EC50: 252 nM

COc1cc(Nc2nc3c(s2)CCCC3c2ccc(C)c(C(F)(F)F)c2)ccc1-n1cnc(C)c1 (centres unmarked) [Example 9, [3-Methoxy-4-(4-methyl-imidazol-1-yl)-phenyl]-[4-(4-methyl-3-trifluoromethyl-phenyl)-4,5,6,7-tetrahydro-benzothiazol-2-yl]-amine]
EC50: 100 nM

Cc1cn(-c2ccc(Nc3ncc4c(n3)C(c3ccccc3)CCC4)cc2F)cn1 (centres unmarked) [Example 38, [3-Fluoro-4-(4-methyl-imidazol-1-yl)-phenyl]-(8-phenyl-5,6,7,8-tetrahydro-quinazolin-2-yl)-amine]
EC50: 130 nM
